Values joined by “and” are separate entries in the source; they are usually repeats but may differ in a detail not shown here. Equal values may be shown once.
Key:
Sprague-Dawley rats [1] = assay: Liver histopathology scores of toxicant-treated rats; assay type: in vivo, rat; settings: TMPD-treated rats
Description: (§1) To follow up on the initial results shown in Example 2, blood samples from 44 individual rats that had been treated with varying doses of CBrCl3, CCl4 (another liver toxicant), or TMPD were evaluated using qPCR of miR-122 and miR-133. In addition, data from histopathology and a panel of standard biomarkers (ALT, AST, CK, skTnI, etc.) were also available for these same individual rats and were used to compare the results from microRNA assays with the standard histopathology and protein biomarkers.
(§2) Animals Male and female Sprague-Dawley rats were obtained from Charles River Laboratories, Inc. (Raleigh, N.C.). The rats were approximately seven to eight weeks of age and weighed from 125 to 325 grams at the start of the study. The animals were acclimated for approximately one week and randomized into treatment and control groups. During the toxicity studies targeting liver, the animals were maintained on a caloric-restricted diet, and fasted overnight prior to necropsy. Doses were different for each model compound tested and were calculated based on animal body weight. For the compounds, routes of administration, dose groups, and time points, see the below compound section.
(§3) Liver Toxicant • Trichlorobromomethane (CCl3Br) • Doses: 0.03, 0.1 ml/kg • Dosing: 100% liquid paraffin by oral gavage • Animals: Sprague Dawley Male Rats • Time Point: CCl3Br Plasma (Days 2 & 4) and Controls (4 controls, 3 samples per group, 100 μl each) • Carbon Tetrachloride (CCl4) • Doses: 0.03, 0.1, 0.3 ml/kg • Dosing: 100% liquid paraffin by oral gavage • Animals: Sprague Dawley Male Rats • Time Point: CCl4 Plasma (Days 2) and Controls (4 samples per group, 100 μl each)

Sprague-Dawley rats [2] = assay: Pooled sample study: miR-122 in blood plasma of toxicant-treated rats by qPCR; assay type: in vivo; settings: pooled rat plasma (5 samples), cerivastatin 1.0 mg/kg/day oral Day 14, CBrCl3 0.1 ml/kg oral Days 2 & 4, TMPD 6 mg/kg bid s.c. Day 3
Description: (§4) To explore the feasibility of detecting miRNA tissue injury biomarkers in plasma, a pilot study was performed in which pooled blood plasma samples from rat toxicology studies were analyzed using a qPCR-based assay (Raymond et at, 2005, RNA 11:1737; WO 2006/081282). The miRNAs miR-122 and miR-133 were chosen for quantification because they are extremely abundant and specific to liver and muscle, respectively (FIG. 1). Stored plasma samples from rats that had previously been treated with a liver damaging agent trichlorobromomethane (CBrCl3) or with one of two muscle damaging agents 2,3,5,6-tetramethyl-p phenylenediamine (TMPD) or cerivastatin) were assayed form miRNA levels using qPCR.
as §2
(§5) Skeletal Muscle Toxicant • 2,3,5,6-tetramethyl-p phenylenediamine (TMPD) • Doses: 6 mg/kg bid • Dosing: 0.9% NaCl by subcutaneous injection • Animals: Sprague Dawley Male Rats • Time Points Day 3, TMPD Plasma (Day 3) and Controls (5 samples, 100 ul each pooled=500 ul total).
(§6) Liver Toxicant • Trichlorbromomethane (CCl3Br) • Doses: 0.1 ml/kg • Dosing: 100% liquid paraffin by oral gavage • Animals: Sprague Dawley Male Rats • Time Point: Day 2, 4 CCl3Br Plasma (Days 2 & 4) and Controls (5 samples, 100 ul each pooled=500 ul total)
(§7) Liver and Muscle Toxicant • Cerivastatin • Doses: 1.0 mg/kg/day • Dosing: 0.5% methylcellulose by oral gavage • Animals: Sprague Dawley Female Rats • Time Point Day 14 Cerivastatin Plasma (Day 14) and Controls (5 samples, 100 ul each pooled=500 μl total)
(§8) Plasma Samples All plasma samples were collected in EDTA tubes at final necropsy from the vena cava. Samples were inverted several times, and centrifuged for 20 minutes at 2,900 RPM at 4° C. Plasma samples were removed and stored at −70° C. Pooled blood plasma samples from rat toxicology studies were analyzed using a qPCR-based assay (Raymond et al, 2005, RNA 11:1737; WO 2006/081282). Control slope and intercept values for miR-122 and miR-133 were calculated from a concentration series of each microRNA added to total yeast RNA and then analyzed using the qPCR assay for each miRNA. The slope and intercept values from the standard curve were used to calculate the amount of each respective miRNA in each sample expressed as the number of miRNA copies per 20 ng of total RNA in each sample. Cycle threshold values (Ct) for each sample were converted to miRNA copy numbers by comparison to standard curves generated using single stranded mature miRNAs and are expressed as copies/20 pg input RNA (approximately equivalent to copies/cell).

Sprague-Dawley rats [3] = assay: Clinical chemistry (AST, ALT, CK) in blood plasma of toxicant-treated rats; assay type: in vivo, rat; settings: for ALT / AST / CK: Day 2, plasma, individual male rats
Description: as §1, §2
(§9) Skeletal Muscle Toxicant • 2,3,5,6-tetramethyl-p phenylenediamine (TMPD) • Doses: 2, 4 mg/kg bid • Dosing: 0.9% NaCl by subcutaneous injection • Animals: Sprague Dawley Male Rats • Time Points: TMPD Plasma (Day 2) and Controls (5 samples per group, […] pooled=500 μl total).
as §3

Sprague-Dawley rats [4] = assay: Pooled sample study: miR-133 in blood plasma of toxicant-treated rats by qPCR; assay type: in vivo; settings: pooled rat plasma (5 samples), cerivastatin 1.0 mg/kg/day oral Day 14, CBrCl3 0.1 ml/kg oral Days 2 & 4, TMPD 6 mg/kg bid s.c. Day 3
Description: as §4, §2, §5, §6, §7, §8

Sprague-Dawley rats [5] = assay: Individual sample study: miR-133 in blood plasma of toxicant-treated rats by qPCR; assay type: in vivo, rat; settings: Day 2, plasma, individual male rats
Description: as §1, §2, §9, §3
as §8, with “are expressed in Table 4 as copies/20” for “are expressed as copies/20”

Sprague-Dawley rats [6] = assay: Muscle histopathology (quad, soleus) of TMPD-treated rats; assay type: in vivo, rat; design: key: 1 = very slight; 2 = slight or small; 3 = moderate; 4 = marked; 5 = severe tissue injury; settings: Day 2, individual male rats
Description: as §1, §2, §9

Sprague-Dawley rats [7] = assay: Individual sample study: miR-122 in blood plasma of toxicant-treated rats by qPCR; assay type: in vivo, rat; settings: Day 2, plasma, individual male rats
Description: as §1, §2, §9, §3
as §8, with “are expressed in Table 4 as copies/20” for “are expressed as copies/20”

Sprague-Dawley rats [8] = assay: miR-10a in urine of kidney-toxicant-treated rats by qPCR; assay type: in vivo, rat; settings: Gentamicin 240 mg/kg/day intraperitoneal, individual male rats
Description: as §2, with “targeting kidney,” for “targeting liver,”, “below Test Compound” for “below compound”
Urine Samples Urine samples were collected overnight on either dry or wet ice, aliquoted, and stored at −70° C. […] Urine samples were thawed on ice and about 1 milliliter (ml) of each sample placed into a tube. Each sample was placed in a room temperature speed-vac to reduce sample volume to about 200 microliters (μl). About 1 ml of trizol was added to the viscous concentrated urine solution and RNA extracted using Ambion BlycoBlue and alcohol precipitation.
Samples from rat toxicology studies were analyzed for miRNA levels using a qPCR-based assay (Raymond et al, 2005, RNA 11:1737; WO 2006/081282). Control slope and intercept values for miR-10a was calculated from a concentration series of miR-10a added to total yeast RNA and then analyzed using the qPCR assay. The slope and intercept values from the standard curve were used to calculate the amount of miR-10a in each sample expressed as the number of miRNA copies per 20 ng of total RNA in each sample. Cycle threshold values (Ct) for each sample were converted to miRNA copy numbers by comparison to a standard curve generated using single stranded mature miR-10a and are expressed in Table 7 as copies/20 pg input RNA (approximately equivalent to copies/cell).

Sprague-Dawley rats [9] = assay: Kidney histopathology (proximal tubule overall tissue injury) of toxicant-treated rats; assay type: in vivo, rat; settings: Gentamicin 240 mg/kg/day intraperitoneal, Day 12, individual male rats
Description: as §2, with “targeting kidney,” for “targeting liver,”, “below Test Compound” for “below compound”

In the case of `Cc1c(C)c(N)c(C)c(C)c1N` [TMPD, 2,3,5,6-tetramethyl-p phenylenediamine], the liver histopathology (Sprague-Dawley rats [1]) is reported as “no liver histopathology has been observed”, the “miR-122 Copies” value (Sprague-Dawley rats [2]; 250 ng total RNA input) is reported as 89353.3 and the “miR-122 Ct Mean” value (Sprague-Dawley rats [2]; 250 ng total RNA input) is reported as 26.2479. For the same compound, the “miR-122 Copies/20 pg” value (Sprague-Dawley rats [2]) was 7.1 Copies/20 pg, the ALT (Sprague-Dawley rats [3]; TMPD 2 mg/kg bid subcutaneous) was 29 U/L and 36 U/L and 37 U/L and 27 U/L and 30 U/L and the AST (Sprague-Dawley rats [3]; TMPD 2 mg/kg bid subcutaneous) was 120 U/L and 164 U/L and 203 U/L and 111 U/L and 167 U/L. For the same compound, the CK (Sprague-Dawley rats [3]; TMPD 2 mg/kg bid subcutaneous) was 424 U/L and 695 U/L and 696 U/L and 450 U/L and 463 U/L, the ALT (Sprague-Dawley rats [3]; TMPD 4 mg/kg bid subcutaneous) was 60 U/L and 133 U/L and 215 U/L and 94 U/L and 56 U/L and the AST (Sprague-Dawley rats [3]; TMPD 4 mg/kg bid subcutaneous) was 357 U/L and 1250 U/L and 1740 U/L and 700 U/L and 501 U/L. The CK (Sprague-Dawley rats [3]; TMPD 4 mg/kg bid subcutaneous) was 363 U/L and 767 U/L and 1252 U/L and 439 U/L and 343 U/L, the ALT versus controls (Sprague-Dawley rats [3]; rats dosed with TMPD, plasma) was “significantly elevated” and the AST versus controls (Sprague-Dawley rats [3]; rats dosed with TMPD, plasma) was “significantly elevated”. For the same compound, the “miR-133 Copies” value (Sprague-Dawley rats [4]; 250 ng total RNA input) was 4753175, the “miR-133 Ct Mean” value (Sprague-Dawley rats [4]; 250 ng total RNA input) was 23.7323 and the “miR-133 Copies/20 pg” value (Sprague-Dawley rats [4]) was 380.3 Copies/20 pg. For the same compound, the miR-133 (Sprague-Dawley rats [5]; TMPD 2 mg/kg bid subcutaneous) was 0.9 copies/20 pg input RNA and 4.3 copies/20 pg input RNA and 9.3 copies/20 pg input RNA and 1.3 copies/20 pg input RNA and 4.1 copies/20 pg input RNA, the miR-133 (Sprague-Dawley rats [5]; TMPD 4 mg/kg bid subcutaneous) was 19.3 copies/20 pg input RNA and 63.9 copies/20 pg input RNA and 79.3 copies/20 pg input RNA and 63.8 copies/20 pg input RNA and 16.7 copies/20 pg input RNA and the “Muscle Histopathology Quad (Overall Damage)” value (Sprague-Dawley rats [6]; TMPD 2 mg/kg bid subcutaneous) was 0 (4×) and 1. For the same compound, the “Muscle Histopathology Soleus (Overall Damage)” value (Sprague-Dawley rats [6]; TMPD 2 mg/kg bid subcutaneous) was 0, the “Muscle Histopathology Quad (Overall Damage)” value (Sprague-Dawley rats [6]; TMPD 4 mg/kg bid subcutaneous) was 1 (3×) and 2 (2×) and the “Muscle Histopathology Soleus (Overall Damage)” value (Sprague-Dawley rats [6]; TMPD 4 mg/kg bid subcutaneous) was 1 (3×) and 0 (2×). The miR-122 (Sprague-Dawley rats [7]; TMPD 2 mg/kg bid subcutaneous) was 2.6 copies/20 pg input RNA and 5.6 copies/20 pg input RNA and 7.3 copies/20 pg input RNA and 0.8 copies/20 pg input RNA and 2.2 copies/20 pg input RNA and the miR-122 (Sprague-Dawley rats [7]; TMPD 4 mg/kg bid subcutaneous) was 9.5 copies/20 pg input RNA and 1.8 copies/20 pg input RNA and 15.7 copies/20 pg input RNA and 11.7 copies/20 pg input RNA and 3.2 copies/20 pg input RNA.
For Gentamicin, the miR-10a (Sprague-Dawley rats [8]; Day 3, urine) was 11.98 copies/20 pg input RNA and 3.51 copies/20 pg input RNA and 0.03 copies/20 pg input RNA and 0.05 copies/20 pg input RNA and 10.00 copies/20 pg input RNA, the miR-10a (Sprague-Dawley rats [8]; Day 9, urine) was 0.96 copies/20 pg input RNA and 0.64 copies/20 pg input RNA and 16.88 copies/20 pg input RNA and 51.03 copies/20 pg input RNA and 6.61 copies/20 pg input RNA and 4.90 copies/20 pg input RNA and 58.70 copies/20 pg input RNA and 38.01 copies/20 pg input RNA and 25.61 copies/20 pg input RNA and the miR-10a (Sprague-Dawley rats [8]; Day 12, urine) was 3.5 copies/20 pg input RNA and 9.46 copies/20 pg input RNA and 4.17 copies/20 pg input RNA and 2.13 copies/20 pg input RNA and 4.99 copies/20 pg input RNA and 3.46 copies/20 pg input RNA and 3.86 copies/20 pg input RNA and 23.75 copies/20 pg input RNA and 10.40 copies/20 pg input RNA. The “Kidney Histopathology: Proximal tubule overall tissue injury (highest severity grade measured at Day 12)” value (Sprague-Dawley rats [9]) was 5.

Reference: patent US20110111976A1, “MICRORNA BIOMARKERS OF TISSUE INJURY” (priority 2008, published 2011)
